According to US20250109143A1, “KLF2 INDUCING DEUTERATED COMPOUNDS AND USES THEREOF” (Riparian Pharmaceuticals, Inc., priority 2023, published 2025):

Assays:
[1] = test system: primary human endothelial cells expressing luciferase under the control of the KLF2 promoter; assay: KLF2 induction cell based bioassay (GLuc KLF2 concentration response, luciferase reporter); details: 24 hours incubation, 11-point concentration response; for IC50: 24 h, read-out: GLuc KLF2 Conc Response (IC50) Avg; for EC50: EC50 = concentration where normalized curve passes 0.5, read-out: GLuc KLF2 Conc Response (EC50) Ave
Source text: In endothelial cell culture media, a stock of the highest working concentration was made at no more than 1% DMSO vehicle. The working stock was then serially diluted 1:2 to make an 11-point concentration response curve. Included in the 96-well plate were 2 reference compounds with known potencies. A DMSO column was included in the 96-well plate at the highest percent vehicle of the working stocks. The 96-well cell culture plate of primary human endothelial cells expressing luciferase under the control of the KLF2 promoter was dosed with 200 μL per well of the dilution series as well as the DMSO control column. The assay plate was incubated at 37° C. for 24 hours. The supernatant was collected at 24 hours.
20 μL of the supernatant was then placed in a 384-well plate with optical duplicates. The corners of the plate received 20 μL of the Gaussia Luciferase Enzyme positive control, as well as 20 μL of the 50 μM Coelenterizine substrate. The plate read is then calibrated using the control, and read using a Molecular Devices SpectraMax iD5, providing luminescence in relative light units (RLU). The plate reader injected 20 μL of the 50 μM Coelenterazine substrate immediately before taking the RLU measurement for each well.
The sample signals were then normalized to the average signal of the DMSO column, as well as to the maximum signal of one of the reference compounds, as shown in the equations below: […]
The EC50 of each compound is then defined as when the concentration response curve passes 0.5.

KLF2 = assay: qPCR KLF2 concentration response; type: cell-based; details: read-out: qPCR KLF2 Conc Response (EC50)

COc1ccccc1CNC(=O)C1(C)COc2c(oc3ccccc23)C(=O)N1CC(C)(C)OC (centres unmarked) [Example 3]
IC50 [1]: 0.34 µM
EC50 [1]: 0.06 µM
EC50 (KLF2): 0.01 µM

C#CCCN1C(=O)c2oc3ccccc3c2OC[C@]1(C)C(=O)NCc1ccccc1OC [Example 6]
IC50 [1]: 0.07 µM
EC50 [1]: 0.02 µM
EC50 (KLF2): 0.01 µM

C#CCCN1C(=O)c2oc3ccccc3c2OCC1(C)C(=O)NCc1ccccc1OC (centres unmarked) [Example 5]
IC50 [1]: 0.15 µM
EC50 [1]: 0.04 µM

COc1ccccc1CNC(=O)C1(C)COc2c(oc3ccccc23)C(=O)N1CC1(F)CCC1 (centres unmarked) [Example 2]
IC50 [1]: 0.2 µM
EC50 [1]: 0.02 µM
EC50 (KLF2): 0.01 µM
